Laboratory results as given in paper PMC9948168, “Vanillin-Based Indolin-2-one Derivative Bearing a Pyridyl Moiety as a Promising Anti-Breast Cancer Agent via Anti-Estrogenic Activity” (ACS Omega, 2023).

What was measured:
Assay in all cases: NCI-60 one-dose screening
Type in all cases: cell-based
CCRF-CEM = settings: Homo sapiens, Leukemias, read-out: GI (%)
DU-145 = settings: Homo sapiens, DU-145, Prostate Cancer, read-out: GI (%)
EKVX = settings: Homo sapiens, Non-Small Cell Lung Cancer, read-out: GI (%)
HCC-2998 = settings: Homo sapiens, HCC-2998, Colon Cancer, read-out: GI (%)
HCT-15 = settings: Homo sapiens, HCT-15, Colon Cancer, read-out: GI (%)
HL-60(TB) = settings: Homo sapiens, Leukemias, read-out: GI (%)
HS 578T = settings: Homo sapiens, Breast Cancer, read-out: GI (%)
IGROV1 = settings: Homo sapiens, IGROV-1, IGROV1, Ovarian Cancer, read-out: GI (%)
K-562 = settings: Homo sapiens, K562, K-562, Leukemias, read-out: GI (%)
KM12 = settings: Homo sapiens, KM12, Colon Cancer, read-out: GI (%)
LOX IMVI = settings: Homo sapiens, Melanoma, read-out: GI (%)
MALME-3M = settings: Homo sapiens, Melanoma, read-out: GI (%)
MCF7 = settings: Homo sapiens, MCF7, 10 μM; MCF7, Breast Cancer; read-out: GI (%)
MDA-MB-435 = settings: Homo sapiens, MDA-MB-435, Melanoma, read-out: GI (%)
MDA-MB-468 = settings: Homo sapiens, MDA-MB-468, Breast Cancer, read-out: GI (%)
MOLT-4 = settings: Homo sapiens, MOLT-4, Leukemias, read-out: GI (%)
NCI-H226 = settings: Homo sapiens, NCI-H226, Non-Small Cell Lung Cancer, read-out: GI (%)
NCI-H23 = settings: Homo sapiens, NCI-H23, Non-Small Cell Lung Cancer, read-out: GI (%)
NCI-H460 = settings: Homo sapiens, NCI-H460, Non-Small Cell Lung Cancer, read-out: GI (%)
NCI-H522 = settings: Homo sapiens, NCI-H522, Non-Small Cell Lung Cancer, read-out: GI (%)
NCI/ADR-RES = settings: Homo sapiens, Ovarian Cancer, read-out: GI (%)
OVCAR-3 = settings: Homo sapiens, OVCAR-3, 10 μM; OVCAR-3, Ovarian Cancer; read-out: GI (%)
OVCAR-5 = settings: Homo sapiens, OVCAR-5, Ovarian Cancer, read-out: GI (%)
OVCAR-8 = settings: Homo sapiens, OVCAR-8, Ovarian Cancer, read-out: GI (%)
PC-3 = settings: Homo sapiens, PC-3, Prostate Cancer, read-out: GI (%)
RPMI-8226 = settings: Homo sapiens, RPMI-8226, Leukemias, read-out: GI (%)
SF-268 = settings: Homo sapiens, SF-268, CNS Cancer, read-out: GI (%)
SK-MEL-28 = settings: Homo sapiens, SK-MEL-28, Melanoma, read-out: GI (%)
SK-MEL-5 = settings: Homo sapiens, SK-MEL-5, Melanoma, read-out: GI (%)
SN12C = settings: Homo sapiens, Renal Cancer, read-out: GI (%)
SNB-19 = settings: Homo sapiens, SNB-19, CNS Cancer, read-out: GI (%)
TK-10 = settings: Homo sapiens, TK-10, Renal Cancer, read-out: GI (%)
U251 = settings: Homo sapiens, U-251, U251, CNS Cancer, read-out: GI (%)
UACC-257 = settings: Homo sapiens, UACC-257, Melanoma, read-out: GI (%)
UO-31 = settings: Homo sapiens, UO-31, Renal Cancer, read-out: GI (%)

COc1cc(/C=C2/C(=O)Nc3cc(Cl)ccc32)ccc1O [5c]
inhibition at 10 µM (CCRF-CEM): 17% | inhibition at 10 µM (DU-145): -1.46% | inhibition at 10 µM (EKVX): 77.2% | inhibition at 10 µM (HCC-2998): 0.25% | inhibition at 10 µM (HCT-15): 34.8% | inhibition at 10 µM (HL-60(TB)): 13.9% | inhibition at 10 µM (HS 578T): 50.9% | inhibition at 10 µM (IGROV1): 36.6% | inhibition at 10 µM (K-562): 19.6% | inhibition at 10 µM (KM12): 6.51% | inhibition at 10 µM (LOX IMVI): 22.7% | inhibition at 10 µM (MALME-3M): 8.69% | inhibition at 10 µM (MCF7): 54.4% | inhibition at 10 µM (MDA-MB-435): 17.8% | inhibition at 10 µM (MDA-MB-468): 28.5% | inhibition at 10 µM (MOLT-4): 27.9% | inhibition at 10 µM (NCI-H226): 10% | inhibition at 10 µM (NCI-H23): 11.6% | inhibition at 10 µM (NCI-H460): 8.53% | inhibition at 10 µM (NCI-H522): 25.4% | inhibition at 10 µM (NCI/ADR-RES): 11.5% | inhibition at 10 µM (OVCAR-3): 25.8% | inhibition at 10 µM (OVCAR-5): -7.45% | inhibition at 10 µM (OVCAR-8): 13% | inhibition at 10 µM (PC-3): 21.6% | inhibition at 10 µM (RPMI-8226): 17.9% | inhibition at 10 µM (SF-268): 21.8% | inhibition at 10 µM (SK-MEL-28): 1.11% | inhibition at 10 µM (SK-MEL-5): 29.1% | inhibition at 10 µM (SN12C): 15.2% | inhibition at 10 µM (SNB-19): 24.6% | inhibition at 10 µM (TK-10): -60.3% | inhibition at 10 µM (U251): 33.5% | inhibition at 10 µM (UACC-257): 2.41% | inhibition at 10 µM (UO-31): 39.5%

COc1ccc(COc2ccc(/C=C3/C(=O)Nc4ccc(Cl)cc43)cc2OC)cc1 [6i]
inhibition at 10 µM (CCRF-CEM): 1.43% | inhibition at 10 µM (DU-145): -12.1% | inhibition at 10 µM (EKVX): 11.4% | inhibition at 10 µM (HCC-2998): -4.23% | inhibition at 10 µM (HCT-15): 3.59% | inhibition at 10 µM (HL-60(TB)): 0.37% | inhibition at 10 µM (HS 578T): -2.52% | inhibition at 10 µM (IGROV1): 5.39% | inhibition at 10 µM (K-562): 6.52% | inhibition at 10 µM (KM12): 0.58% | inhibition at 10 µM (LOX IMVI): 5.6% | inhibition at 10 µM (MALME-3M): 2.07% | inhibition at 10 µM (MCF7): 22.3% | inhibition at 10 µM (MDA-MB-435): -5.33% | inhibition at 10 µM (MDA-MB-468): 5.64% | inhibition at 10 µM (MOLT-4): 4.03% | inhibition at 10 µM (NCI-H226): 3.61% | inhibition at 10 µM (NCI-H23): 3.99% | inhibition at 10 µM (NCI-H460): -2% | inhibition at 10 µM (NCI-H522): 5.36% | inhibition at 10 µM (NCI/ADR-RES): 3.06% | inhibition at 10 µM (OVCAR-3): -1.86% | inhibition at 10 µM (OVCAR-5): 1.66% | inhibition at 10 µM (OVCAR-8): 1.18% | inhibition at 10 µM (PC-3): 11.3% | inhibition at 10 µM (RPMI-8226): 1.88% | inhibition at 10 µM (SF-268): -0.7% | inhibition at 10 µM (SK-MEL-28): -6.77% | inhibition at 10 µM (SK-MEL-5): 0.21% | inhibition at 10 µM (SN12C): 1.92% | inhibition at 10 µM (SNB-19): 2.61% | inhibition at 10 µM (TK-10): -18.4% | inhibition at 10 µM (U251): -2.19% | inhibition at 10 µM (UACC-257): -2.09% | inhibition at 10 µM (UO-31): 30.9%

COc1cc(C=C2C(=O)Nc3ccccc32)ccc1OCc1ccccc1 (mixture of isomers) [6a]
inhibition at 10 µM (CCRF-CEM): 9.45% | inhibition at 10 µM (DU-145): 0.43% | inhibition at 10 µM (EKVX): 8.21% | inhibition at 10 µM (HCC-2998): -19.5% | inhibition at 10 µM (HCT-15): 12.2% | inhibition at 10 µM (HL-60(TB)): -10.5% | inhibition at 10 µM (HS 578T): -7.03% | inhibition at 10 µM (IGROV1): 5.2% | inhibition at 10 µM (K-562): 3.5% | inhibition at 10 µM (KM12): -0.02% | inhibition at 10 µM (LOX IMVI): 7.61% | inhibition at 10 µM (MALME-3M): 8.77% | inhibition at 10 µM (MCF7): 35.7% | inhibition at 10 µM (MDA-MB-435): -3.92% | inhibition at 10 µM (MDA-MB-468): 8.69% | inhibition at 10 µM (MOLT-4): 1.73% | inhibition at 10 µM (NCI-H226): -0.06% | inhibition at 10 µM (NCI-H23): -2.84% | inhibition at 10 µM (NCI-H460): 20.2% | inhibition at 10 µM (NCI-H522): 9.6% | inhibition at 10 µM (NCI/ADR-RES): 1.52% | inhibition at 10 µM (OVCAR-3): 11% | inhibition at 10 µM (OVCAR-5): -2.62% | inhibition at 10 µM (OVCAR-8): -0.93% | inhibition at 10 µM (PC-3): 5.85% | inhibition at 10 µM (RPMI-8226): 1% | inhibition at 10 µM (SF-268): -1% | inhibition at 10 µM (SK-MEL-28): -5.94% | inhibition at 10 µM (SK-MEL-5): -3.35% | inhibition at 10 µM (SN12C): 3.52% | inhibition at 10 µM (SNB-19): 0.53% | inhibition at 10 µM (TK-10): -40.3% | inhibition at 10 µM (U251): -6.68% | inhibition at 10 µM (UACC-257): -21.2% | inhibition at 10 µM (UO-31): 25.3%

COc1cc(C=C2C(=O)Nc3ccc(Cl)cc32)ccc1O (mixture of isomers) [5b]
inhibition at 10 µM (CCRF-CEM): 22.6% | inhibition at 10 µM (DU-145): 33.1% | inhibition at 10 µM (EKVX): 86.3% | inhibition at 10 µM (HCC-2998): -1.13% | inhibition at 10 µM (HCT-15): 25.2% | inhibition at 10 µM (HL-60(TB)): 23.1% | inhibition at 10 µM (HS 578T): 80.1% | inhibition at 10 µM (IGROV1): 16.2% | inhibition at 10 µM (K-562): 28.1% | inhibition at 10 µM (KM12): 7.96% | inhibition at 10 µM (LOX IMVI): 22.5% | inhibition at 10 µM (MALME-3M): 3.24% | inhibition at 10 µM (MCF7): 57.5% | inhibition at 10 µM (MDA-MB-435): 19.4% | inhibition at 10 µM (MDA-MB-468): 31.3% | inhibition at 10 µM (MOLT-4): 23.1% | inhibition at 10 µM (NCI-H226): 2.25% | inhibition at 10 µM (NCI-H23): 15.6% | inhibition at 10 µM (NCI-H460): 7.4% | inhibition at 10 µM (NCI-H522): 20.1% | inhibition at 10 µM (NCI/ADR-RES): 9.66% | inhibition at 10 µM (OVCAR-3): 25.8% | inhibition at 10 µM (OVCAR-5): 0.41% | inhibition at 10 µM (OVCAR-8): 13.8% | inhibition at 10 µM (PC-3): 13.8% | inhibition at 10 µM (RPMI-8226): 23.6% | inhibition at 10 µM (SF-268): 29.1% | inhibition at 10 µM (SK-MEL-28): 5.35% | inhibition at 10 µM (SK-MEL-5): 31.5% | inhibition at 10 µM (SN12C): 14.6% | inhibition at 10 µM (SNB-19): 20.7% | inhibition at 10 µM (TK-10): -56.3% | inhibition at 10 µM (U251): 39.8% | inhibition at 10 µM (UACC-257): 13.5% | inhibition at 10 µM (UO-31): 45%
